Laboratory results published in ChEMBL document CHEMBL1201862, “PubChem BioAssay data set” (2004).
Calls of active or inactive are those of the source.

Assays:
[1] = T. cruzi growth inhibition in host cells, dose response, cell-based, plate reader, dry powder, set 2 (AID 652275); type: functional
[2] = Late stage assay provider results from the probe development effort to identify inhibitors of the Plasmodium falciparum M17 Leucine Aminopeptidase (M17LAP): radiolabel-based cell-based dose response assay to identify compounds that inhibit P. falciparum growth in RBCs Set 2.; type: functional
[3] = target: Induced myeloid leukemia cell differentiation protein Mcl-1 (Homo sapiens, UniProt Q07820); type: functional
[4] = target: T1, Protein RecA (Mycobacterium tuberculosis, UniProt P9WHJ3); test: Fluorescence Cell-Free Homogeneous Dose Retest to Identify Inhibitors of RecA-Intein Splicing Activity. [Related pubchem assays (depositor defined):AID2097, AID2223, AID489010, AID492950]; type: functional
T1 sequence (P9WHJ3 whole entry): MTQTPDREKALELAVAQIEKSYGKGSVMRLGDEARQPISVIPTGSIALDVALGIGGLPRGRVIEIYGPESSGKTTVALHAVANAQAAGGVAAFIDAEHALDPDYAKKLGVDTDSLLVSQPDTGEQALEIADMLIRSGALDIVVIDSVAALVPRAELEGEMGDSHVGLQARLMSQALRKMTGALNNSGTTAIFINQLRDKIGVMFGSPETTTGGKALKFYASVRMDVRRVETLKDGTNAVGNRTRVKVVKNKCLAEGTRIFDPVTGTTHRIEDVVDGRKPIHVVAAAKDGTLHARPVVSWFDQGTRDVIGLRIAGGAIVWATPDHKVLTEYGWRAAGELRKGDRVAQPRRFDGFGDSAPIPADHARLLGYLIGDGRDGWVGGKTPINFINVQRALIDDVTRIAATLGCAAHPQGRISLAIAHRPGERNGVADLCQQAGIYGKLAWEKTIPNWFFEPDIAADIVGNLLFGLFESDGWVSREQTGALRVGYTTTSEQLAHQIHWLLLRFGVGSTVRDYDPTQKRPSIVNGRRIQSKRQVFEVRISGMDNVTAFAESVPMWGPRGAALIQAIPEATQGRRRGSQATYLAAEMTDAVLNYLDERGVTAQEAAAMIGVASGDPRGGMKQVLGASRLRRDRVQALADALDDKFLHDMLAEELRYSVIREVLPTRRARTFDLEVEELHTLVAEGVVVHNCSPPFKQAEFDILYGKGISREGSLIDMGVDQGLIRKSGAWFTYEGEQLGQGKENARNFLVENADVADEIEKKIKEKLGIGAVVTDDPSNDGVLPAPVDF

[5] = target: Histone-lysine N-methyltransferase NSD2 (Homo sapiens, UniProt O96028); type: biochemical
[6] = A549 cell cytotoxicity, dose response, cytotoxicity control, plate reader, cherry-pick, antagonist series (AID 743412); type: functional, cell-based
[7] = blockers of bursicon-stimulated LGR2 cAMP reporter – cell-based, HEK293, CRE-luciferase reporter, cherry pick, set 2, dose response (AID 743343); type: functional;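 note: transfected cells were stimulated with diluted bursicon conditioned medium after compound addition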
[8] = blockade of melanocortin 4 receptor signaling – cell-based, plate reader, cherry pick, counter-screen for LGR2 antagonist project, dose response (AID 743444); type: functional;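 note: transfected HEK 293 cells stimulated with alpha-MSH peptide; potency of inhibitors of the alpha-MSH evoked signal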
[9] = target: T2, Carboxy-terminal domain RNA polymerase II polypeptide A small phosphatase 1 (Homo sapiens, UniProt Q9GZU7); test: CTDSP1 inhibitors, concentration-response, biochemical, absorbance readout, ultra-high-throughput screen actives (AID 540297); type: functional
T2 sequence (Q9GZU7 whole entry): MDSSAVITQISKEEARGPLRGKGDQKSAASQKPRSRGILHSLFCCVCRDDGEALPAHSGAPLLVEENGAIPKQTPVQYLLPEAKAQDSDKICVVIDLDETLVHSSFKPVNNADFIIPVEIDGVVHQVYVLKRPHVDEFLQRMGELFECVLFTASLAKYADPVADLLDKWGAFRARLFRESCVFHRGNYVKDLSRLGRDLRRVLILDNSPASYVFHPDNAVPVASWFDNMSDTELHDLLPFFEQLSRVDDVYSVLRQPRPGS

[10] = target: Tyrosine-protein phosphatase non-receptor type 11 (Homo sapiens, UniProt Q06124); test: PTPN11 enzyme inhibitors – biochemical, selectivity assay for STEP inhibitor project, dose response (AID 602367); type: functional; conditions: read-out: IC50_Mean
[11] = target: Tyrosine-protein phosphatase non-receptor type 5 (Homo sapiens, UniProt P54829); test: PTPN5 enzyme inhibition – biochemical, fluorescence intensity, uHTS hits, confirmation (AID 602372); type: functional; conditions: read-out: IC50_Mean
[12] = target: Dual specificity protein phosphatase 3 (Homo sapiens, UniProt P51452); test: VHR phosphatase inhibition, dose response, selectivity assay for STEP inhibitor project, biochemical (AID 602374); type: functional; conditions: read-out: IC50_Mean
[13] = target: T3, Tyrosine-protein phosphatase non-receptor type 22 (Homo sapiens, UniProt Q9Y2R2); test: lymphoid phosphatase LYP inhibitors – biochemical, selectivity assay for STEP inhibitor project, dose response (AID 624241); type: functional
T3 sequence (Q9Y2R2 whole entry): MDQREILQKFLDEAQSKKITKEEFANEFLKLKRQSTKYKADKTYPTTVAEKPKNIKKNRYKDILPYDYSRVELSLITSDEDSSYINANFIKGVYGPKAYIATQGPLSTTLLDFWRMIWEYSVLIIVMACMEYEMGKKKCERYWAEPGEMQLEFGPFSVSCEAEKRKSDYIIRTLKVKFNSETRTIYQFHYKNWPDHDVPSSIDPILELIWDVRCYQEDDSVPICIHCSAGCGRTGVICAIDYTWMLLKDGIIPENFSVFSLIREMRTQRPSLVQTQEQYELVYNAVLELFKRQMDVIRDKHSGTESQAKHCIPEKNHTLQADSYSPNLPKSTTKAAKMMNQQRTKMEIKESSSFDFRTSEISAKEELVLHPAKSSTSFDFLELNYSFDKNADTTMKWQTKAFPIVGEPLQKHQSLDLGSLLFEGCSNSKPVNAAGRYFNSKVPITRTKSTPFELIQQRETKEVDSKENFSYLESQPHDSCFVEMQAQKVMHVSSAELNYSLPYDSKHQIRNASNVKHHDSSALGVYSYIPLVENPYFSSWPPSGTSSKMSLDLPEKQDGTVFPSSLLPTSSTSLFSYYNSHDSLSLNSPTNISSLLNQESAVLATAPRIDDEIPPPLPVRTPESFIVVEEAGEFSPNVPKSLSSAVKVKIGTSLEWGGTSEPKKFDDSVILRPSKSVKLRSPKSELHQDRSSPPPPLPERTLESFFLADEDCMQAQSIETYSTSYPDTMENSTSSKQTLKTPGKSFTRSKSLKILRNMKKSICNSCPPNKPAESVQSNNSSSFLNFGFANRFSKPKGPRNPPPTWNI

[14] = target: Arf-GAP with SH3 domain, ANK repeat and PH domain-containing protein 1 (Homo sapiens, UniProt Q9ULH1); type: functional;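 note: biochemical fluorescence polarization dose–response screen measuring inhibition of ASAP1; ASAP1 GAP domain stimulating GTP hydrolysis by truncated human ARF1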
[15] = target: Long-chain-fatty-acid--AMP ligase FadD28 (Mycobacterium tuberculosis, UniProt P9WQ59); test: Fluorescence polarization aasay to screen for inhibitors that compete for the binding of FadD28 to a bisubstrate Measured in Biochemical System Using Plate Reader - 2147-01_Inhibitor_Dose_CherryPick_Activity.; type: functional, Mycobacterium tuberculosis H37Rv
Long-chain-fatty-acid--AMP ligase FadD28, sequence (P9WQ59 whole entry): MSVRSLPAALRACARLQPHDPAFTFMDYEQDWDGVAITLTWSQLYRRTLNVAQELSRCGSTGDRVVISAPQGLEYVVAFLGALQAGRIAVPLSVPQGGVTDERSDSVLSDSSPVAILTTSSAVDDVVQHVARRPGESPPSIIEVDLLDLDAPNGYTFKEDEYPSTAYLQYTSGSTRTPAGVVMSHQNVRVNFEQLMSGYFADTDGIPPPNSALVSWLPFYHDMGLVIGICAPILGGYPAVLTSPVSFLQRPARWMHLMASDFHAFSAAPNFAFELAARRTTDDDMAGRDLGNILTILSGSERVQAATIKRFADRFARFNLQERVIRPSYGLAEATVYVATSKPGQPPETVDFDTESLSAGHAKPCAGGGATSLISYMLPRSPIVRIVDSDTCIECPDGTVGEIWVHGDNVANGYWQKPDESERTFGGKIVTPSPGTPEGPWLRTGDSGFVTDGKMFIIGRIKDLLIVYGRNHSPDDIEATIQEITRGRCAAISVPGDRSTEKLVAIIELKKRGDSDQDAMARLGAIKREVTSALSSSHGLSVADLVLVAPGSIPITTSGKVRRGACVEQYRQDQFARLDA

Tyrosine-protein phosphatase non-receptor type 11, sequence (Q06124 whole entry): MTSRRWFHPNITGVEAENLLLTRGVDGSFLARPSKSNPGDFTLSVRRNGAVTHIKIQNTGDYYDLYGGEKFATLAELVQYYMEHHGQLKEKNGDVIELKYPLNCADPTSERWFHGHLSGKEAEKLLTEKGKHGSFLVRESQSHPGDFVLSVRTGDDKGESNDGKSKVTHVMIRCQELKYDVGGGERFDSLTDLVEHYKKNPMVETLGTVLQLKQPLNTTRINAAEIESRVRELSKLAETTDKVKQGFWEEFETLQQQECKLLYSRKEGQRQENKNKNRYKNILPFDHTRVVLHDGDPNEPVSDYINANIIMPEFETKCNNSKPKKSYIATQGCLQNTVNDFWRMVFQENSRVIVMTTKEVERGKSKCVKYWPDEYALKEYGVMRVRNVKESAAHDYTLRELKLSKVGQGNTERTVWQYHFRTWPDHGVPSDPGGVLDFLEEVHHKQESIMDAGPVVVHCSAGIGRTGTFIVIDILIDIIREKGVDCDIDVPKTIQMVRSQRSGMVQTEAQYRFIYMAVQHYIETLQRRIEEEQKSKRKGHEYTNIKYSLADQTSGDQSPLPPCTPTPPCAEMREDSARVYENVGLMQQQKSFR
Induced myeloid leukemia cell differentiation protein Mcl-1, sequence (Q07820 whole entry): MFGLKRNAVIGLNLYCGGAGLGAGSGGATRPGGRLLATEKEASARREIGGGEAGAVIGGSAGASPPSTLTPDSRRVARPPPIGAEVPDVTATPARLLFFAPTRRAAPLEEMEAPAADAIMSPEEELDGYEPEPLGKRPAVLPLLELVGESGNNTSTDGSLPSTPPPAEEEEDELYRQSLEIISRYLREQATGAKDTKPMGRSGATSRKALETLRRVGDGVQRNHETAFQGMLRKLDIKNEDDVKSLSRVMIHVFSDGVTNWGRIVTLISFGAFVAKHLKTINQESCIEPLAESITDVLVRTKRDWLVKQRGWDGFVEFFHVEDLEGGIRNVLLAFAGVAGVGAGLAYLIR
Dual specificity protein phosphatase 3, sequence (P51452 whole entry): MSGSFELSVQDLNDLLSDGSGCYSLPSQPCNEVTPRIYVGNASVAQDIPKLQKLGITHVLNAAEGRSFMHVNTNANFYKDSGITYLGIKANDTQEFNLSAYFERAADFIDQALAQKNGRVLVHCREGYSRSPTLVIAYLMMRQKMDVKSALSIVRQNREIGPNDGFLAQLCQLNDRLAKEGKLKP
Arf-GAP with SH3 domain, ANK repeat and PH domain-containing protein 1, sequence (Q9ULH1 whole entry, the tested form may be a part): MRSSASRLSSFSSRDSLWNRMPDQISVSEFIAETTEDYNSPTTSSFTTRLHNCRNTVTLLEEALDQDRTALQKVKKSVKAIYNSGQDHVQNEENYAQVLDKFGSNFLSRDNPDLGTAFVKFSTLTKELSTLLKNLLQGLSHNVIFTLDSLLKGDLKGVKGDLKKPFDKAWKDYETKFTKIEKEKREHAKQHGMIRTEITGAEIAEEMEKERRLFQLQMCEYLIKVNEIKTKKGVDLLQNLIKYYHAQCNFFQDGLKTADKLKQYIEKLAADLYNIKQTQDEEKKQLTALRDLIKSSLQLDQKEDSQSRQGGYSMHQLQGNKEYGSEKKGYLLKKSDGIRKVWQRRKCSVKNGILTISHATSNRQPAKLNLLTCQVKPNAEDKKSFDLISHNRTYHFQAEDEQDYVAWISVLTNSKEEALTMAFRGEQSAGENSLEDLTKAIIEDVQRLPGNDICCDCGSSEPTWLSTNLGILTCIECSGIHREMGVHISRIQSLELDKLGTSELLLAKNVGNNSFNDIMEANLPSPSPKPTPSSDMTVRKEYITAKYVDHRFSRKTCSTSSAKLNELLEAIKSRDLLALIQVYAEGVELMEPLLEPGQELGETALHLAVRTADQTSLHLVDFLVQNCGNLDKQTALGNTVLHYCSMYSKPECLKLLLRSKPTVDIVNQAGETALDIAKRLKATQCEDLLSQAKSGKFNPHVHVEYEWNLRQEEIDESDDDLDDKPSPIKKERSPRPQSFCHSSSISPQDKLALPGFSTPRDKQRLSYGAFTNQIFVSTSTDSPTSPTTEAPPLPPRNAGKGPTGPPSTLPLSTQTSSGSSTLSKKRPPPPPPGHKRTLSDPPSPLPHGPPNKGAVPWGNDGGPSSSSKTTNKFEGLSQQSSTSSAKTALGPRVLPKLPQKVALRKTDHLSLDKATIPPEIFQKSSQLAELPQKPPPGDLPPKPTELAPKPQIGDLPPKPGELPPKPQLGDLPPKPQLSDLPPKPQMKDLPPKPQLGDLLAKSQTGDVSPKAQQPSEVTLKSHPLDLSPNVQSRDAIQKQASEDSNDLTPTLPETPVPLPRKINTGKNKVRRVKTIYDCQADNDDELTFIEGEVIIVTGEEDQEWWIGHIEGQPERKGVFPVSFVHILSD
Tyrosine-protein phosphatase non-receptor type 5, sequence (P54829 whole entry): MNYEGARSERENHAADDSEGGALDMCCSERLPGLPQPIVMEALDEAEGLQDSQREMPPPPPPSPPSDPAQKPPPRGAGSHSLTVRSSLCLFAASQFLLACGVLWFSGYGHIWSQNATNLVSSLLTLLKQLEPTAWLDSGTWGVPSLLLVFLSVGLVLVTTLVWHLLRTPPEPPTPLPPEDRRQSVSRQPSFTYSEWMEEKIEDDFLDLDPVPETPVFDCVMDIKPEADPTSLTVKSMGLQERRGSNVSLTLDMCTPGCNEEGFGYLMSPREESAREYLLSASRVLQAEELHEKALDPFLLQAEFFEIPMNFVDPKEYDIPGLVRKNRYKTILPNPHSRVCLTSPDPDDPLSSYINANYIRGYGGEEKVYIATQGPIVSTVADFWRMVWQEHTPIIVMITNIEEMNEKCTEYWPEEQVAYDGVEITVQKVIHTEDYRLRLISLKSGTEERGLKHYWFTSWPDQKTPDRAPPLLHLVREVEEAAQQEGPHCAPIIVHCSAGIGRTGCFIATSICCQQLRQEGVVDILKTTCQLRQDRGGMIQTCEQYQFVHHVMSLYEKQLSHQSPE
Histone-lysine N-methyltransferase NSD2, sequence (O96028 whole entry): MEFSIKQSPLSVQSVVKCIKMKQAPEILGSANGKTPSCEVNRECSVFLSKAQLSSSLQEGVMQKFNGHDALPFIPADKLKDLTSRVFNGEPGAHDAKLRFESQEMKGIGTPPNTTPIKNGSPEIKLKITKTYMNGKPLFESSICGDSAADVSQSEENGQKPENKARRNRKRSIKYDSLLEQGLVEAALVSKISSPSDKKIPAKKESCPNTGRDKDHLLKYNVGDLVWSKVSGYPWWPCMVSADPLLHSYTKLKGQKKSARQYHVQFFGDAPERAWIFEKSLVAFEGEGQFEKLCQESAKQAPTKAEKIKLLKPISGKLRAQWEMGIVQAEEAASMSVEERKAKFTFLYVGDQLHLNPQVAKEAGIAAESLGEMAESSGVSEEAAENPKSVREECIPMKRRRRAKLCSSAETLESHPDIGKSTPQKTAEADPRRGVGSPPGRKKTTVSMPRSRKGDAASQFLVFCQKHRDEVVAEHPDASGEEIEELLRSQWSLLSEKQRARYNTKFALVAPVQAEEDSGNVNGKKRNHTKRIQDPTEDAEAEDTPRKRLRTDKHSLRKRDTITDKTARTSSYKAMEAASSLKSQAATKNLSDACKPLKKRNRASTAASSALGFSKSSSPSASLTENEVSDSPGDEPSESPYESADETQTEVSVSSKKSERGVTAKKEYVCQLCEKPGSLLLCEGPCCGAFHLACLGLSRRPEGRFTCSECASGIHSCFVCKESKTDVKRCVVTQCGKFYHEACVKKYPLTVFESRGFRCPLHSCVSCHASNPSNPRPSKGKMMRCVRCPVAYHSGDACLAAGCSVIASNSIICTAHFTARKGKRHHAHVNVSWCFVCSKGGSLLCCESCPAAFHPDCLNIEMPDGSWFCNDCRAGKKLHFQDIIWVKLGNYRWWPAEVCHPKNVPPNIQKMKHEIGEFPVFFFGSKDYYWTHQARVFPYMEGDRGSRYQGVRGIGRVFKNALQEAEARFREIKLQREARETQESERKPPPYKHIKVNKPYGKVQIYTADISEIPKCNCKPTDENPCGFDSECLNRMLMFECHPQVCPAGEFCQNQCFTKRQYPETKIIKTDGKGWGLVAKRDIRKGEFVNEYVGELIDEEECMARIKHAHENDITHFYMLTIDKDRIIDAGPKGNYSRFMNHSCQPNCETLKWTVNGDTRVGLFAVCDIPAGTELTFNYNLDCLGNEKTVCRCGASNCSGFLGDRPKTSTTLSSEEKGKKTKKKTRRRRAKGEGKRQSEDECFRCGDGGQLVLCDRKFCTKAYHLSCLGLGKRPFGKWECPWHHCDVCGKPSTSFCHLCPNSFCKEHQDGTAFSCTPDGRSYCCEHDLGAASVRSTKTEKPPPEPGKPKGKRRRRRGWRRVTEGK

Question: For CC(C)N1CC2(CN(CC3CCCCC3)C2)Oc2c(NC(=O)c3ccncc3)cccc2C1=O, which AC50 [1] is on record?
Answer: 1.18 µM (active)

Question: With CCCCOc1ccc(C(C)C(=O)NO)cc1 (stereo not given) as the compound, how does the IC50 [2] read?
Answer: 12.9 µM (inactive)

Question: Which IC50 [3] does the source give for CCOC(=O)C1CCN(c2nc(N)c3c(N)nc(SCC(=O)O)cc3c2C#N)CC1 here?
Answer: 4.87 µM (active)

Question: And the EC50 [4]?
Answer: > 380 µM (inactive)

Question: What about the AC50 [5] of the same compound?
Answer: 6.04 µM (active)

Question: For O=C(NCCc1ccc(Cl)cc1)c1ccc2c(c1)OCCO2, which AC50 [6] is on record?
Answer: > 52 µM (inactive)

Question: And the AC50 [7]?
Answer: 20.1 µM (active)

Question: And the AC50 [8]?
Answer: 21.2 µM (active)

Question: Which results are given for CCOC(=O)CN1C(=O)S/C(=C/c2ccc(OCc3ccc(C(=O)O)cc3)cc2)C1=O?
Answer: IC50 [9]: 3.74 µM (active); IC50 [10]: 3.24 µM (active); IC50 [11]: 25.4 µM (inactive); IC50 [12]: 4.27 µM (active); IC50 [13]: 50.6 µM (inactive)

Question: For COc1cc(/C=C2/SC(N)=NC2=O)ccc1Oc1ccc([N+](=O)[O-])cc1[N+](=O)[O-], which IC50 [14] is on record?
Answer: 54.9 µM (inactive)

Question: Which AC50 [15] does the source give for Cc1ccc(CSCCNC(=O)c2ccc(N(C)S(=O)(=O)c3ccccc3)cc2)cc1 here?
Answer: 7.13 µM (active)
